“Also recorded” adds a separate entry of the source. Counter-ions that a name gives are not always drawn. Like-named read-outs stand apart in the source and are kept apart here.
What was measured:
L1210 leukemia cells = assay: L1210 ascitic leukemia survival, single dose (Example 14); type: in vivo, mice
Description: Murine leukemia cells, L1210 leukemia cells were grown in the peritoneum of CD2F1 mice by three serial propagations (i.p.). Ascites developed within eight days of the last inoculation were used in the following experiments. Cytostatic activities of liposomal and conventional formulations of mitoxantrone against L1210 ascitic leukemia was determined. Animal group weights were determined three times a week and clinically morbid animals were humanely sacrificed. The surviving mice were observed daily for 60 days. Group survival times post i.v. treatment with single or multiple doses of the drug was indicative of the relative anti-tumor potencies of liposomal and conventional mitoxantrone.
Female CD2F1 mice were divided into eight groups of 10 animals and inoculated i.v. with 10,000 L1210 cells. Drug was administered twenty-four hours later. Conventional mitoxantrone was administered at doses of 5 and 10 mg/kg. […] Surviving animals were sacrificed on day 60 of the experiment. Blank liposomes equivalent to the 35, mg/kg dose and normal saline was also administered as controls.

[1] = tested on: human hormone-refractory prostate tumor cells (PC-3)
Description: Male Balb/c, nu/nu, 6-8 week old mice were inoculated with 5×10^6 of human hormone-refractory prostate tumor cells (PC-3). Tumor growth was monitored twice a week until the tumor volumes were in the range of […]. Animals were then divided into groups and were treated by i.v. injection via the tail vein with conventional mitoxantrone at doses of 0.625, 1.25, 2.5, and 5 mg/kg once every other day for four days. Doses of mitoxantrone formulated in liposomes were 2.5, 5, 7.5, and 10 mg/kg. Control animals received either normal saline or blank liposomes. The median survival time was calculated and all surviving animals were sacrificed on Day 34.
In these experiments tumor volumes were measured once or twice a week by measuring the three major axes.

male CD2F1 mice [2] = tested on: male CD2F1 mice
Description: Eighty male CD2F1 mice weighing 20-22 g were acclimated for 1 week and randomly separated into 8 groups of ten animals each with 5 animals per cage. On day 0 all groups of animals were injected i.v. in the tail vein with the drug or vehicle control. The volumes administered were varied based on individual animal weights. Mouse weights were recorded for each mouse on alternate days following injection and observation for clinical illness were recorded at least daily.

male CD2F1 mice [3] = details: 25 mg/kg single i.v.
Description: Twenty male CD2F1 mice weighing 20-22 g were acclimated for 1 week and randomly separated into 4 groups of five animals each with 5 animals per cage. On day 0 all groups of animals were injected i.v. in the tail vein with the drug or vehicle control. The volumes administered were varied based on individual animal weights. Mouse weights were recorded for each mouse on alternate days following injection and observation for clinical illness were recorded at least daily.

male CD2F1 mice [4] = tested on: male CD2F1 mice; remark: listed apart in the source
Description: Seventy male CD2F1 mice weighing 20-22 g were acclimated for 1 week and randomly separated into 7 groups of ten animals each with 5 animals per cage. On day 0 all groups of animals were injected i.v. in the tail vein with the drug or vehicle control. The volumes administered were varied based on individual animal weights. Mouse weights were recorded for each mouse on alternate days following injection and observation for clinical illness were recorded at least daily.

male CD2F1 mice [5] = tested on: male CD2F1 mice; remark: listed apart in the source
Description: Forty male CD2F1 mice weighing 20-22 g were acclimated for 1 week and randomly separated into 8 groups of five animals each with 5 animals per cage. On day 0 all groups of animals were injected i.v. in the tail vein with the drug or vehicle control and once daily thereafter for a period of 5 days. The volumes administered were varied based on individual animal weights. Mouse weights were recorded for each mouse on alternate days following injection and observations of clinical illness were recorded at least daily.

male CD2F1 mice [6] = tested on: male CD2F1 mice; remark: listed apart in the source
Description: Thirty male CD2F1 mice weighing 20-22 g were acclimated for 1 week and randomly separated into 6 groups of five animals each with 5 animals per cage. On day 0 all groups of animals were injected i.v. in the tail vein with the drug or vehicle control and once daily thereafter for a period of 5 days. The volumes administered were varied based on individual animal weights. Mouse weights were determined for each mouse on alternate days following injection and observation for clinical illness were recorded at least daily.

in vivo [7] = details: male, CD2F1, mouse, plasma, iv, 5 mg/kg
Description: Plasma and tissue samples were analyzed for mitoxantrone by reverse phase HPLC. Plasma samples (0.25 ml) were mixed with 0.5 ml of solution of 0.01 mg/ml hexanesulfonic acid, 0.5 mg/ml ascorbic acid, and 0.25 μg ametantrone as internal standard. After vortexing for 30 sec., 0.5 ml of 0.1 M borate buffer (pH 9.5) and 150 μl of 1 M sodium hydroxide was added and the solution vortexed again for 30 sec. […] The organic layer (9 ml) was separated and evaporated under nitrogen. Samples were reconstituted with 10 μl of mobile phase prior to HPLC analysis. Tissue samples were homogenized in 1 ml of solution containing 20% ascorbic acid in 0.1 M citrate buffer, pH 3.0, and extracted as described above. Mitoxantrone was separated by reverse-phase chromatography (Waters μBondapak® C-18) using a mobile phase of 33% acetonitrile, and 67% 0.16 M ammonium formate buffer, pH 2.7 delivered at a flow rate of 1 ml/min. Mitoxantrone was detected at 600 nm. The limit of sensitivity was 10 ng/ml.
Plasma Pharmacokinetic parameters were assessed by standard methods. The elimination rate constant (K) was calculated from the linear regression analysis of plasma concentration-time curve. The area under the curve (AUC0→∞) was calculated using the linear trapezoidal method with extrapolation of the terminal phase to infinity (Clast/K), where Clast is the last measured concentration. Other parameters calculated were total body clearance (Cl) as Dose/AUC; volume of distribution (Varea)=Cl/K; elimination half-life (t1/2)=0.693/Karea.

in vivo [8] = details: beagle, dog, plasma, iv, 0.26 mg/kg
Description: (§1) Time points analyzed were 0, 5 and 30 min and 1, 2, 4, 8 and 24 h after a single dose administration.

[9] = Plasma pharmacokinetics in dogs (Example 17)
Description: as §1

beagle dogs = assay: Repeated-dose i.v. toxicity in beagle dogs (Example 18)
Description: Conventional mitoxantrone was administered to beagle dogs (3/sex/group) at i.v. dosages of 0 (saline), 0.129 or 0.258 mg/kg (2.6 or 5 mg/m^2) on Days 1, 23, 43 and 65. […] Evaluations for compound-related effects were based on clinical observations, body weight, food consumption, ophthalmologic and ECG examination, clinical pathology, plasma drug concentrations, organ weights and gross and microscopic postmortem examinations.

[10] = conventional 5 mg/kg, liposomal 10 mg/kg, daily x5

Question: With O=C1c2c(O)ccc(O)c2C(=O)c2c(NCCNCCO)ccc(NCCNCCO)c21 [conventional mitoxantrone, mitoxantrone hydrochloride] as the molecule, how does the median survival (L1210 leukemia cells; 5 mg/kg single i.v., 24 h after 10,000 L1210 cells i.v.) read?
Answer: The median survival was 12 days.

Question: What about the “animals alive at day 60” value (L1210 leukemia cells; 10 mg/kg single i.v.) of the same molecule?
Answer: The value was 2/10.

Question: And the median survival time (L1210 leukemia cells; 10 mg/kg single i.v.)?
Answer: The median survival time was 20 days.

Question: And the “survival by day 34” value ([1]; 0.625 and 1.25 mg/kg i.v. once every other day)?
Answer: The value was 100%.

Question: What about the “survival by day 34” value ([1]; 2.5 and 5 mg/kg i.v. once every other day) of the same molecule?
Answer: Its value is “no animals”.

Question: And the “toxicity in tumor-bearing mice” value ([1]; in vivo)?
Answer: Its value is “Severe toxicity”.

Question: What about the weight loss (male CD2F1 mice [2]; 10 mg/kg single i.v., by day 10, then gradual recovery) of the same molecule?
Answer: Its weight loss is 20%.

Question: And the morbidity (male CD2F1 mice [2]; 15 mg/kg single i.v. dose)?
Answer: Its morbidity is 100%.

Question: And the weight loss (male CD2F1 mice [2]; 15 mg/kg single i.v., by day 9/10)?
Answer: Its weight loss is “about 35%”.

Question: What about the ALT (male CD2F1 mice [2]; 15 mg/kg single i.v., day 10, hydrochloride) of the same molecule?
Answer: Its ALT is “Clinically significant elevations in ALT; also recorded: significant increases in ALT”.

Question: What about the BUN (male CD2F1 mice [2]; 15 mg/kg single i.v., two mice) of the same molecule?
Answer: The BUN was “modest elevations in BUN”.

Question: And the histopathology (male CD2F1 mice [2]; single i.v. dose, spleen and bone marrow)?
Answer: The histopathology was “compound effects on hematopoietic and lymphoid tissues of the spleen and bone marrow”.

Question: And the “body weight course (remaining groups)” value (male CD2F1 mice [2]; single i.v., conventional 5 mg/kg, liposomal 5, 10, 15 mg/kg)?
Answer: The value was “gained weight steadily”.

Question: And the morbidity (male CD2F1 mice [3])?
Answer: The morbidity was 100%.

Question: And the initial weight loss (male CD2F1 mice [4]; 10 mg/kg single i.v., gradual recovery)?
Answer: The initial weight loss was 13%.

Question: And the morbidity (male CD2F1 mice [4]; 25 mg/kg single i.v.)?
Answer: Its morbidity is 100%.

Question: What about the ALT activities (male CD2F1 mice [4]; day 3, one mouse each: conventional 25 mg/kg, liposomal 35 mg/kg) of the same molecule?
Answer: The ALT activities was “modest increases in ALT activities”.

Question: What about the animals that died (male CD2F1 mice [5]; 5 and 7.5 mg/kg daily x5) of the same molecule?
Answer: Its animals that died is “all of the animals”.

Question: What about the progressive weight loss (male CD2F1 mice [5]; 5 and 7.5 mg/kg daily x5, by day 7) of the same molecule?
Answer: The progressive weight loss was “about 25%”.

Question: And the hepatocellular vacuolar degeneration (male CD2F1 mice [5]; 5 or 7.5 mg/kg daily x5, several mice)?
Answer: The hepatocellular vacuolar degeneration was “Some hepatocellular vacuolar degeneration”.

Question: And the “leukopenia in moribund-sacrificed mice” value (male CD2F1 mice [5]; conventional 5, 7.5 mg/kg, liposomal 7.5 mg/kg, daily x5)?
Answer: Its value is “marked, clinically significant, compound related leukopenia”.

Question: And the clinical signs (male CD2F1 mice [5]; day 6, conventional 2.5, 5, 7.5 mg/kg, liposomal 7.5 mg/kg, daily x5)?
Answer: The clinical signs was “ruffled fur and hunching behavior”.

Question: What about the morbidity or mortality (male CD2F1 mice [5]; liposomal any dose (2.5-7.5 mg/kg), conventional […], daily x5) of the same molecule?
Answer: The morbidity or mortality was “no morbidity or mortality”.

Question: And the “lethality (mice tested)” value (male CD2F1 mice [6]; 5 mg/kg daily x5)?
Answer: The value was 100%.

Question: What about the progressive weight loss (male CD2F1 mice [6]; 5 mg/kg daily x5, by day 9) of the same molecule?
Answer: Its progressive weight loss is “about 35%”.

Question: And the “acute liver injury (ALT, AST, bilirubin)” value (male CD2F1 mice [6]; by day 8, conventional 5 mg/kg/day vs liposomal 10 mg/kg/day)?
Answer: Its value is “roughly equivalent acute liver injury”.

Question: And the “AST and ALT in moribund sacrificed animals” value (male CD2F1 mice [6]; [10])?
Answer: The value was “marked elevations in AST and ALT”.

Question: And the “leukopenia in moribund animals” value (male CD2F1 mice [6]; [10])?
Answer: The value was “marked leukopenia”.

Question: What about the “mice with bilirubin concentration greater than in control mice” value (male CD2F1 mice [6]; [10]) of the same molecule?
Answer: The value was 3 of the 4.

Question: What about the clinical signs (male CD2F1 mice [6]; conventional 2.5, 5 mg/kg, liposomal 10 mg/kg, daily x5) of the same molecule?
Answer: The clinical signs was “ruffled fur and hunching behavior”.

Question: What about the “tissue concentration, kidneys” value (5 mg/kg single i.v.) of the same molecule?
Answer: The value was ~40 µg/g.

Question: And the “tissue concentration, lungs” value (5 mg/kg single i.v.)?
Answer: The value was “approximately 20 μg/g”.

Question: What about the heart tissue concentration (5 mg/kg single i.v., 5 and 15 minutes) of the same molecule?
Answer: The heart tissue concentration was “approximately 10 μg/g”.

Question: What about the “heart concentration (peak)” value (5 mg/kg single i.v., 5 minutes) of the same molecule?
Answer: The value was 11 µg/g.

Question: What about the “liver concentration after gradual decrease” value (5 mg/kg single i.v., end of time course) of the same molecule?
Answer: Its value is ~2 µg/g.

Question: What about the “liver concentration, initial” value (5 mg/kg single i.v., start of time course) of the same molecule?
Answer: Its value is “approximately 19 μg/g”.

Question: What about the “heart, lung and kidney concentrations, comparison of formulations” value (all time points, 5 mg/kg i.v.) of the same molecule?
Answer: The value was “higher”.

Question: And the AUC (in vivo [7])?
Answer: The AUC was 140 ng·h/mL.

Question: What about the Cmax (in vivo [7]) of the same molecule?
Answer: The Cmax was 410 ng/mL.

Question: And the Vd (in vivo [7])?
Answer: The Vd was 5.5 L/kg.

Question: And the clearance (in vivo [7])?
Answer: Its clearance is 600 mL/min/kg.

Question: What about the half-life (in vivo [7]) of the same molecule?
Answer: The half-life was 6.6 min.

Question: What about the Cmax (in vivo [8]; female) of the same molecule?
Answer: The Cmax was 60 ng/mL.

Question: And the Cmax (in vivo [8]; male)?
Answer: Its Cmax is 84 ng/mL.

Question: What about the clearance (in vivo [8]; male) of the same molecule?
Answer: The clearance was 89 mL/min/kg.

Question: And the half-life (in vivo [8]; male)?
Answer: The half-life was 21.6 min.

Question: And the V ([9]; 0.26 mg/kg i.v., male dogs, mean)?
Answer: The V was 2.8 L/kg.

Question: And the “time point at which plasma concentrations could not be measured” value ([9]; high dose (0.26 mg/kg))?
Answer: The value was 30 min.

Question: What about the hematology (beagle dogs; 0.129 and 0.258 mg/kg, 4 to 10 days following each dose cycle, dose related) of the same molecule?
Answer: Its hematology is “leukopenia and thrombocytopenia”.

Question: And the ECG parameters (beagle dogs; any examination time)?
Answer: The ECG parameters was “no changes in ECG parameters”.

Question: And the food consumption (beagle dogs; any groups)?
Answer: The food consumption was “no changes in food consumption”.

Question: What about the “coagulation or clinical chemistry parameters” value (beagle dogs; any of the dosage groups) of the same molecule?
Answer: The value was “No changes”.

Question: And the anemia (beagle dogs; conventional: all animals, liposomal: female dogs)?
Answer: The anemia was “Anemia did not occur”.

Question: What about the body weight (beagle dogs; conventional: males at 0.258 mg/kg, liposomal: all dose groups, Days 1, 23, 43, 65) of the same molecule?
Answer: The body weight was “lost weight”.
